# Reference: patent US20230373989A1, “N-PHENYLAMINOCARBONYL PYRIDINO-, PYRIMIDINO AND BENZO-TROPANES AS MODULATORS OF GPR65” (PATHIOS THERAPEUTICS LIMITED, priority 2020, published 2023)
# Biological target: T1, human recombinant GPR65 (Homo sapiens, UniProt Q8IYL9)
# T1 construct: host or cells: 1321N1 human astrocytoma cells (1321N1-hrGPR65)
# Assay: Human GPR65 cAMP HTRF antagonist assay
# Format: cell-based
# Conditions: not given
# From the text: In one preferred embodiment, the compound prevents the increase in cytoplasmic cAMP levels expected following GPR65 activation at acidic pH. This prevention of cAMP accumulation in turn prevents downstream signalling through ICER, as described above. The “Human GPR65 cyclic adenosine monophosphate (cAMP) Homogeneous Time Resolved Fluorescence (HTRF) antagonist assay”, or simply “cAMP assay”, as described in the accompanying examples, can be used to measure the potency of GPR65 modulators, which is expressed as the concentration of compound required to reduce the increase in cAMP concentration upon GPR65 activation by 50% (i.e. an IC50).
# Human GPR65 Cyclic Adenosine Monophosphate (cAMP) Homogeneous Time Resolved Fluorescence (HTRF) Antagonist Assay Procedure
# IC50 data was obtained by the following procedure:
# 1321N1 human astrocytoma cells stably expressing human recombinant GPR65 (1321N1-hrGPR65 cells, EuroscreenFast) were cultured according to the vendor's instructions.
# Compounds were tested for their ability to antagonise GPR65, through measuring the concentration of cytoplasmic cAMP following treatment of the cells at a pH of 7.2 to activate GPR65 signalling and addition of the compound to be tested. The extent to which the expected rise in cAMP concentration upon GPR65 activation was suppressed by the added compound is indicative of its potency. The assay was carried out according to EuroscreenFast assay methodology as follows.
# On the day of the assay, test compounds were added to 384-well, low volume, white microtiter plates by acoustic dispensing. KRH buffer (5 mM KCl, 1.25 mM MgSO4, 124 mM NaCl, 25 mM HEPES, 13.3 mM Glucose, 1.25 mM KH2PO4 and 1.45 mM CaCl2) was adjusted to pH 6.5, pH 7.6 and pH 8.4 by adding NaOH. 1321N1-hGPR65 cells were rapidly thawed and diluted in KRH, pH 7.6 prior to centrifugation at 300×g for 5 min and resuspension in assay buffer (KRH, pH 7.6, supplemented with 1 mM 3-isobutyl-1-methylxanthine (IBMX) and 200 μM ethylenediaminetetraacetic acid (EDTA)). Cells were added to assay plates at a density of 2,000 cells per well in a volume of 5 μl. Assay plates were briefly centrifuged at 100×g and then incubated at room temperature for 30 min. Cells were stimulated by the addition of 5 μL KRH, pH 6.5, to achieve an assay pH of 7.2, while control wells received 5 μl KRH, pH 8.4 to achieve an assay pH of 7.9. Assay plates were briefly centrifuged at 100×g and then incubated at room temperature for 30 min.
# Accumulation of cAMP was detected by cAMP HTRF kit (Cisbio). d2-labeled cAMP and cryptate-labeled anti-cAMP antibody in Lysis and Detection Buffer (Cisbio) were added to assay plates, and the plates were incubated at room temperature for 1 h. HTRF measurements were performed using a Pherastar FSX instrument. Acceptor and donor emission signals were measured at 665 nm and 620 nm, respectively, and HTRF ratios were calculated as signal665 nm/signal620 nm×104. Data were normalised to high and low control values and fitted with 4-parameter logistic regression to determine hGPR65 IC50 values for the test compounds, which are shown in Table 1.
# T1 sequence (Q8IYL9 whole entry): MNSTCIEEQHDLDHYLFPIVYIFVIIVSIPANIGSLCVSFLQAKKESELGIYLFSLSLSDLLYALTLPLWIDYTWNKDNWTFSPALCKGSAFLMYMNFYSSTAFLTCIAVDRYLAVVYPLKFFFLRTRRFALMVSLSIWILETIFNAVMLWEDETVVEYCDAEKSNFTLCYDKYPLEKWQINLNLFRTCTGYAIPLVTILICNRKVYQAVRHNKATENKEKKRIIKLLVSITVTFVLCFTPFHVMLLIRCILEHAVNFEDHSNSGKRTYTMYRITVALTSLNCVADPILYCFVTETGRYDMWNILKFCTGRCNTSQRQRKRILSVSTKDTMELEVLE
row,SMILES,IC50 [µM]
1,"O=C(Nc1cc(Cl)c(C(F)(F)F)cc1F)N1[C@H]2CC[C@@H]1c1c[nH]c(=O)c(F)c1C2 [Compound 146, (6S,9R)-N-(5-Chloro-2-fluoro-4-(trifluoromethyl)phenyl)-4-fluoro-3-oxo-3,5,6,7,8,9-hexahydro-2H-6,9-epiminocyclohepta[c]pyridine-10-carboxamide]",< 0.5
2,"COC(=O)c1cc(NC(=O)N2[C@H]3CC[C@@H]2c2ccnc(F)c2C3)ccc1Cl [Compound 123, Methyl 2-chloro-5-((5R,8S)-1-fluoro-6,7,8,9-tetrahydro-5H-5,8-epiminocyclohepta[c]pyridine-10-carboxamido)benzoate]",< 0.5
3,"O=C(Nc1ccc(Br)c(Cl)c1)N1C2CCC1c1cncnc1C2 (racemic) [Compound 7, (±)-N-(4-Bromo-3-chlorophenyl)-6,7,8,9-tetrahydro-5H-5,8-epiminocyclohepta[d]pyrimidine-10-carboxamide]",< 0.5
4,"O=C(Nc1ccc(Cl)c(C(F)(F)F)c1)N1[C@H]2CC[C@@H]1c1cncnc1C2 [Compound 42, (5R,8S)-N-(4-Chloro-3-(trifluoromethyl)phenyl)-6,7,8,9-tetrahydro-5H-5,8-epiminocyclohepta[d]pyrimidine-10-carboxamide]",< 0.5
5,"Cc1ccc(NC(=O)N2C3CCC2c2ccnc(F)c2C3)cc1C(F)(F)F (racemic) [Compound 160, (±)-1-Fluoro-N-(4-methyl-3-(trifluoromethyl)phenyl)-6,7,8,9-tetrahydro-5H-5,8-epiminocyclohepta[c]pyridine-10-carboxamide]",< 0.5
6,"O=C(Nc1cc(Br)c(C(F)(F)F)cc1F)N1[C@H]2CC[C@@H]1c1ccnc(F)c1C2 [Compound 180, (5R,8S)-N-(5-Bromo-2-fluoro-4-(trifluoromethyl)phenyl)-1-fluoro-6,7,8,9-tetrahydro-5H-5,8-epiminocyclohepta[c]pyridine-10-carboxamide]",< 0.5
7,"O=C(Nc1cc(Cl)c(C(F)(F)F)cc1F)N1[C@@H]2CC[C@H]1c1ccc(F)nc1C2 [Compound 197, (5S,8R)-N-(5-Chloro-2-fluoro-4-(trifluoromethyl)phenyl)-2-fluoro-6,7,8,9-tetrahydro-5H-5,8-epiminocyclohepta[b]pyridine-10-carboxamide]",0.5 to 5
8,"O=C(Nc1ccc(Cl)c(Cl)c1)N1[C@H]2CC[C@@H]1c1c[nH]c(=O)nc1C2 [Compound 106, (5R,8S)-N-(3,4-Dichlorophenyl)-2-oxo-3,5,6,7,8,9-hexahydro-2H-5,8-epiminocyclohepta[d]pyrimidine-10-carboxamide]",< 0.5
9,"O=C(Nc1ccc(OC(F)F)c(Cl)c1)N1[C@H]2CC[C@@H]1c1ccnc(F)c1C2 [Compound 133, (5R,8S)—N-(3-Chloro-4-(difluoromethoxy)phenyl)-1-fluoro-6,7,8,9-tetrahydro-5H-5,8-epiminocyclohepta[c]pyridine-10-carboxamide]",< 0.5
10,"O=C(Nc1ccc(-c2ccccc2)cc1)N1C2CCC1c1ccnc(F)c1C2 (racemic) [Compound 158, (±)-N-([1,1′-Biphenyl]-4-yl)-1-fluoro-6,7,8,9-tetrahydro-5H-5,8-epiminocyclohepta[c]pyridine-10-carboxamide]",< 0.5
11,"O=C(Nc1ccc(C(F)(F)F)c(Cl)c1)N1[C@H]2CC[C@@H]1c1cncnc1C2 [Compound 38, (5R,8S)-N-(3-Chloro-4-(trifluoromethyl)phenyl)-6,7,8,9-tetrahydro-5H-5,8-epiminocyclohepta[d]pyrimidine-10-carboxamide]",< 0.5
12,"O=C(Nc1cc(Cl)c(Cl)cc1F)N1C2CCC1c1c[nH]c(=O)c(F)c1C2 (racemic) [Compound 139, (±)-N-(4,5-Dichloro-2-fluorophenyl)-4-fluoro-3-oxo-3,5,6,7,8,9-hexahydro-2H-6,9-epiminocycloheptan[c]pyridine-10-carboxamide]",< 0.5
13,"O=C(Nc1cccc(C(F)(F)F)c1)N1C2CCC1c1ccnc(F)c1C2 (racemic) [Compound 156, (±)-1-Fluoro-N-(3-(trifluoromethyl)phenyl)-6,7,8,9-tetrahydro-5H-5,8-epiminocyclohepta[c]pyridine-10-carboxamide]",< 0.5
14,"O=C(Nc1cc(Br)c(Cl)cc1F)N1[C@H]2CC[C@@H]1c1c[nH]c(=O)cc1C2 [Compound 142, (6S,9R)-N-(5-Bromo-4-chloro-2-fluorophenyl)-3-oxo-3,5,6,7,8,9-hexahydro-2H-6,9-epiminocyclohepta[c]pyridine-10-carboxamide]",< 0.5
15,"O=C(Nc1ccc(Cl)c(Cl)c1)N1C2CCC1c1cc[n+]([O-])cc1C2 (racemic) [Compound 58, (±)-10-((3,4-Dichlorophenyl)carbamoyl)-6,7,8,9-tetrahydro-5H-5,8-epiminocyclohepta[c]pyridine 2-oxide]",< 0.5
16,"O=C(Nc1ccc(F)c(Br)c1)N1C2CCC1c1ccnc(F)c1C2 (racemic) [Compound 172, (±)-N-(3-Bromo-4-fluorophenyl)-1-fluoro-6,7,8,9-tetrahydro-5H-5,8-epiminocyclohepta[c]pyridine-10-carboxamide]",< 0.5
17,"O=C(Nc1ccc(Cl)c(Cl)c1)N1[C@H]2CC[C@@H]1c1ccncc1C2 [Compound 108, (5R,8S)-N-(3,4-Dichlorophenyl)-6,7,8,9-tetrahydro-5H-5,8-epiminocyclohepta[c]pyridine-10-carboxamide]",< 0.5
18,"O=C(Nc1ccc(C(F)(F)F)c(Br)c1)N1[C@H]2CC[C@@H]1c1ccnc(F)c1C2 [Compound 153, (5R,8S)-N-(3-Bromo-4-(trifluoromethyl)phenyl)-1-fluoro-6,7,8,9-tetrahydro-5H-5,8-epiminocyclohepta[c]pyridine-10-carboxamide]",< 0.5

# Same assay, conditions: 1321N1-hrGPR65 cells, assay pH 7.2, cAMP HTRF; read-out: hGPR65 IC50 (activity class)
row,SMILES,IC50 [µM]
1,"O=C(Nc1cc(F)cc(F)c1)N1C2CCC1c1ccnc(F)c1C2 (racemic) [Compound 173, (±)-N-(3,5-Difluorophenyl)-1-fluoro-6,7,8,9-tetrahydro-5H-5,8-epiminocyclohepta[c]pyridine-10-carboxamide]",0.5 to 5
2,"O=C(Nc1ccc(F)c(C(F)(F)F)c1)N1C2CCC1c1cncnc1C2 (racemic) [Compound 5, (±)-N-(4-Fluoro-3-(trifluoromethyl)phenyl)-6,7,8,9-tetrahydro-5H-5,8-epiminocyclohepta[d]pyrimidine-10-carboxamide]",> 5
3,"O=C(Nc1ccc(Cl)c(Cl)c1)N1C2CCC1c1ccc(O)cc1C2 (racemic) [Compound 57, (±)-N-(3,4-Dichlorophenyl)-2-hydroxy-6,7,8,9-tetrahydro-5H-5,8-epiminobenzo[7]annulene-10-carboxamide]",0.5 to 5
4,"O=C(Nc1cc(Cl)c(C(F)(F)F)cc1F)N1C2CCC1c1c(Cl)nnc(Cl)c1C2 (racemic) [Compound 195, (±)-1,4-Dichloro-N-(5-chloro-2-fluoro-4-(trifluoromethyl)phenyl)-6,7,8,9-tetrahydro-5H-5,8-epiminocyclohepta[d]pyridazine-10-carboxamide]",0.5 to 5
5,"O=C(Nc1ccc(Cl)c(Cl)c1)N1C2CCC1c1cccnc1C2 (racemic) [Compound 87, (±)-N-(3,4-Dichlorophenyl)-6,7,8,9-tetrahydro-5H-5,8-epiminocyclohepta[b]pyridine-10-carboxamide]",> 5
6,"COc1cc(Cl)c(Cl)cc1NC(=O)N1[C@H]2CC[C@@H]1c1ccnc(F)c1C2 [Compound 118, (5R,8S)—N-(4,5-dichloro-2-methoxyphenyl)-1-fluoro-6,7,8,9-tetrahydro-5H-5,8-epiminocyclohepta[c]pyridine-10-carboxamide]",0.5 to 5
7,"O=C(Nc1ccc(Cl)cc1)N1C2CCC1c1cncnc1C2 (racemic) [Compound 49, (±)-N-(4-Chlorophenyl)-6,7,8,9-tetrahydro-5H-5,8-epiminocyclohepta[d]pyrimidine-10-carboxamide]",> 5
8,"O=C(Nc1cccc(Cl)c1)N1C2CCC1c1cncnc1C2 (racemic) [Compound 50, (±)-N-(3-Chlorophenyl)-6,7,8,9-tetrahydro-5H-5,8-epiminocyclohepta[d]pyrimidine-10-carboxamide]",> 5
